Experimental data published in patent publication US11680056B2, “MK2 inhibitors and uses thereof” (Xinthera, Inc., priority 2021, dated 2023).
Where two headings read alike, the source gives them in different places.

Experiments:
p38a/MK2 = p38a/MK2 (Homo sapiens (Human), UniProt P49137+Q16539); assay: p38a/MK2 biochemical assay: activation of MK2 by p38, FITC-HSP27 peptide phosphorylation (IMAP FP); details: 10-point 1:3 dilution, 60 pM active p38a, 1 nM inactive MK2, 10 μM ATP, 2 h incubation
p38a/PRAK = p38a/PRAK (Homo sapiens (Human), UniProt Q16539); assay: p38a/PRAK biochemical assay: activation of PRAK by p38, FITC-HSP27 peptide phosphorylation (IMAP FP); details: 10-point 1:3 dilution, top dose 300 μM; 60 pM active p38a, 1 nM inactive PRAK, 10 μM ATP, 2 h incubation; read-out: p38a/PRAK Enzyme pIC50 (converted)
Summary of the method: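 GST-tagged MK2 (F46–H400) and PRAK (M1–Q471), expressed in E. coli, activated by p38 and phosphorylate FITC-HSP27 peptide over 2 h with compound; readout by IMAP fluorescence polarisation (ex 485/em 528 nm). Ten-point 1:3 dilutions, top dose 1 μM for MK2 and 300 μM for PRAK. IC50 after vehicle normalisation; selectivity = IC50(PRAK)/IC50(MK2).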

[1] = top dose 10 μM, read-out: p38a/MK2 (10 μM) Enzyme pIC50 (converted)
[2] = top dose 1 μM, read-out: p38a/MK2 (1 μM) Enzyme pIC50 (converted)

Sequence of p38a/MK2 (P49137 46-400): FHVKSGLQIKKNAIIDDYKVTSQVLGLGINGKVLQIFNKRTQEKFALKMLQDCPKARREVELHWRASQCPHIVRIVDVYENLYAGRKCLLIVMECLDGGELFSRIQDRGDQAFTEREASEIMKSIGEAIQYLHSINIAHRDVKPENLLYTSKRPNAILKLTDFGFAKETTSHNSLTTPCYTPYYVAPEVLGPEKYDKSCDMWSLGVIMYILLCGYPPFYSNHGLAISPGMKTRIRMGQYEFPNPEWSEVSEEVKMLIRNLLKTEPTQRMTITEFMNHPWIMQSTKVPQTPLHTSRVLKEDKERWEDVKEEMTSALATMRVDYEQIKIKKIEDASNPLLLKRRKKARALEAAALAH
Sequence of p38a/MK2 (Q16539 whole entry): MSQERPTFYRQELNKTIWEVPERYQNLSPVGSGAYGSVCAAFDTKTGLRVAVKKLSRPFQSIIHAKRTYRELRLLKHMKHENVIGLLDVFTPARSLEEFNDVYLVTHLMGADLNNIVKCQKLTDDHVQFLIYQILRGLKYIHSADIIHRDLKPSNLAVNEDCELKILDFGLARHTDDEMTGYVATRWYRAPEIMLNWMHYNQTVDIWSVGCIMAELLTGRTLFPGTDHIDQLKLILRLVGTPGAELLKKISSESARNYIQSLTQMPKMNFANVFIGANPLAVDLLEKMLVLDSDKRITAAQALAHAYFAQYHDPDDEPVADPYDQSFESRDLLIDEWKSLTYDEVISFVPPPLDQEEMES
Sequence of p38a/PRAK (Q16539 whole entry): as above

## Cc1cnc(-c2ccc3c(n2)C(C)(O)CC3)cc1-n1c(C)cc(OCc2ncc(F)cc2F)c(Cl)c1=O (single isomer, unassigned) [Example 32B]
p38a/MK2; [1]
  IC50: 1000 nM
p38a/PRAK
  IC50: > 316000 nM

## Cc1cnc(-c2ccc3c(n2)C(C)(O)CC3)cc1-n1c(C)cc(OCc2ncc(F)cc2F)c(Cl)c1=O (single isomer, unassigned) [Example 32C]
p38a/MK2; [1]
  IC50: 63.1 nM
p38a/PRAK
  IC50: 6310 nM

## Cc1cnc(-c2ccc3c(n2)C(C)(O)CC3)cc1-n1c(C)cc(OCc2ncc(F)cc2F)c(Cl)c1=O (single isomer, unassigned) [Example 32D]
p38a/MK2; [1]
  IC50: 1260 nM
p38a/PRAK
  IC50: > 316000 nM

## Cc1sc(-c2ccnc(C(C)(C)O)n2)cc1-n1c(C)cc(OCc2ncc(F)cc2F)c(Cl)c1=O (single isomer, unassigned) [Example 33A, 3-chloro-4-[(3,5-difluoropyridin-2-yl)methoxy]-1-{5-[2-(2-hydroxypropan-2-yl)pyrimidin-4-yl]-2-methylthiophen-3-yl}-6-methylpyridin-2-one]
p38a/MK2; [2]
  IC50: 25.1 nM
p38a/PRAK
  IC50: 5010 nM

## Cc1sc(-c2ccnc(C(C)(C)O)n2)cc1-n1c(C)cc(OCc2ncc(F)cc2F)c(Cl)c1=O (single isomer, unassigned) [Example 33B, 3-chloro-4-[(3,5-difluoropyridin-2-yl)methoxy]-1-{5-[2-(2-hydroxypropan-2-yl)pyrimidin-4-yl]-2-methylthiophen-3-yl}-6-methylpyridin-2-one]
p38a/MK2; top dose 10 μM
  p38a/MK2 (10 μM) Enzyme pIC50: 6.5
p38a/PRAK
  IC50: 50100 nM

## Cc1cnc(-c2cccc([C@@H](O)CO)n2)cc1-n1c(C)cc(OCc2ncc(F)cc2F)c(Cl)c1=O (single isomer, unassigned) [Example 34A, rel-3-chloro-4-[(3,5-difluoropyridin-2-yl)methoxy]-2′-[6-(1,2-dihydroxyethyl)pyridin-2-yl]-5′,6-dimethyl-[1,4′-bipyridin]-2-one]
p38a/MK2; [2]
  IC50: 20 nM
p38a/PRAK
  IC50: 10000 nM

## Cc1cnc(-c2cccc([C@H](O)CO)n2)cc1-n1c(C)cc(OCc2ncc(F)cc2F)c(Cl)c1=O (single isomer, unassigned) [Example 34B, rel-3-chloro-4-[(3,5-difluoropyridin-2-yl)methoxy]-2′-[6-(1,2-dihydroxyethyl)pyridin-2-yl]-5′,6-dimethyl-[1,4′-bipyridin]-2-one]
p38a/MK2; [1]
  IC50: 12.6 nM
p38a/PRAK
  IC50: 6310 nM

## Cc1cnc(-c2cccc([C@H](O)CO)n2)cc1-n1c(C)cc(OCc2ncc(F)cc2F)c(Cl)c1=O (single isomer, unassigned) [Example 34C, rel-3-chloro-4-[(3,5-difluoropyridin-2-yl)methoxy]-2′-[6-(1,2-dihydroxyethyl)pyridin-2-yl]-5′,6-dimethyl-[1,4′-bipyridin]-2-one]
p38a/MK2; [1]
  IC50: 2000 nM
p38a/PRAK
  IC50: > 316000 nM

## Cc1cnc(-c2cccc([C@@H](O)CO)n2)cc1-n1c(C)cc(OCc2ncc(F)cc2F)c(Cl)c1=O (single isomer, unassigned) [Example 34D, rel-3-chloro-4-[(3,5-difluoropyridin-2-yl)methoxy]-2′-[6-(1,2-dihydroxyethyl)pyridin-2-yl]-5′,6-dimethyl-[1,4′-bipyridin]-2-one]
p38a/MK2; [1]
  IC50: 3160 nM
p38a/PRAK
  IC50: > 316000 nM

## Cc1cnc(-c2ccnc(C(O)C3CC3)n2)cc1-n1c(C)cc(OCc2ncc(F)cc2F)c(Cl)c1=O (single isomer, unassigned) [Example 35A, rel-3-chloro-2′-{2-[cyclopropyl(hydroxy)methyl]pyrimidin-4-yl}-4-[(3,5-difluoropyridin-2-yl)methoxy]-5′,6-dimethyl-[1,4′-bipyridin]-2-one]
p38a/MK2; [2]
  IC50: 50.1 nM
p38a/PRAK
  IC50: 10000 nM

## Cc1cnc(-c2ccnc(C(O)C3CC3)n2)cc1-n1c(C)cc(OCc2ncc(F)cc2F)c(Cl)c1=O (single isomer, unassigned) [Example 35B, rel-3-chloro-2′-{2-[cyclopropyl(hydroxy)methyl]pyrimidin-4-yl}-4-[(3,5-difluoropyridin-2-yl)methoxy]-5′,6-dimethyl-[1,4′-bipyridin]-2-one]
p38a/MK2; [2]
  IC50: 15.8 nM
p38a/PRAK
  IC50: 5010 nM

## Cc1cnc(-c2ccnc(C(O)C3CC3)n2)cc1-n1c(C)cc(OCc2ncc(F)cc2F)c(Cl)c1=O (single isomer, unassigned) [Example 35C, rel-3-chloro-2′-{2-[cyclopropyl(hydroxy)methyl]pyrimidin-4-yl}-4-[(3,5-difluoropyridin-2-yl)methoxy]-5′,6-dimethyl-[1,4′-bipyridin]-2-one]
p38a/MK2; [2]
  IC50: > 1000 nM
p38a/PRAK
  IC50: > 316000 nM

## Cc1cnc(-c2ccnc([C@@H](O)C3CC3)n2)cc1-n1c(C)cc(OCc2ncc(F)cc2F)c(Cl)c1=O (single isomer, unassigned) [Example 35D, rel-3-chloro-2′-{2-[cyclopropyl(hydroxy)methyl]pyrimidin-4-yl}-4-[(3,5-difluoropyridin-2-yl)methoxy]-5′,6-dimethyl-[1,4′-bipyridin]-2-one]
p38a/MK2; [2]
  IC50: > 1000 nM
p38a/PRAK
  IC50: > 316000 nM

## Cc1cnc(-c2cccc([C@@](C)(O)CO)n2)cc1-n1c(C)cc(OCc2ncc(F)cc2F)c(Cl)c1=O (single isomer, unassigned) [Example 36B, rel-3-chloro-4-[(3,5-difluoropyridin-2-yl)methoxy]-2′-[6-(1,2-dihydroxypropan-2-yl)pyridin-2-yl]-5′,6-dimethyl-[1,4′-bipyridin]-2-one]
p38a/MK2; [2]
  IC50: 6.31 nM
p38a/PRAK
  IC50: 15800 nM

## Cc1cnc(-c2cccc(C(C)(O)CO)n2)cc1-n1c(C)cc(OCc2ncc(F)cc2F)c(Cl)c1=O (single isomer, unassigned) [Example 36C, rel-3-chloro-4-[(3,5-difluoropyridin-2-yl)methoxy]-2′-[6-(1,2-dihydroxypropan-2-yl)pyridin-2-yl]-5′,6-dimethyl-[1,4′-bipyridin]-2-one]
p38a/MK2; [2]
  IC50: > 1000 nM
p38a/PRAK
  IC50: > 316000 nM

## Cc1cnc(-n2ccc(C(C)(C)CO)n2)cc1-n1c(C)cc(OCc2ncc(F)cc2F)c(Cl)c1=O (single isomer, unassigned) [Example 37A, rel-3-chloro-4-[(3,5-difluoropyridin-2-yl)methoxy]-2′-[3-(1-hydroxy-2-methylpropan-2-yl)pyrazol-1-yl]-5′,6-dimethyl-[1,4′-bipyridin]-2-one]
p38a/MK2; [2]
  IC50: 5.01 nM
p38a/PRAK
  IC50: 2510 nM

## Cc1cnc(-n2ccc(C(C)(C)CO)n2)cc1-n1c(C)cc(OCc2ncc(F)cc2F)c(Cl)c1=O (single isomer, unassigned) [Example 37B, rel-3-chloro-4-[(3,5-difluoropyridin-2-yl)methoxy]-2′-[3-(1-hydroxy-2-methylpropan-2-yl)pyrazol-1-yl]-5′,6-dimethyl-[1,4′-bipyridin]-2-one]
p38a/MK2; [2]
  IC50: > 1000 nM
p38a/PRAK
  IC50: > 316000 nM

## Cc1cnc(-c2ccnc(C(C)(C)O)c2)cc1-n1c(C)cc(OCc2ncc(F)cc2F)c(Cl)c1=O (single isomer, unassigned) [Example 38A, rel-3-chloro-4-[(3,5-difluoropyridin-2-yl)methoxy]-2′-[2-(2-hydroxypropan-2-yl)pyridin-4-yl]-5′,6-dimethyl-[1,4′-bipyridin]-2-one]
p38a/MK2; [2]
  IC50: 100 nM
p38a/PRAK
  IC50: 31600 nM

## Cc1cnc(-c2ccnc(C(C)(C)O)c2)cc1-n1c(C)cc(OCc2ncc(F)cc2F)c(Cl)c1=O (single isomer, unassigned) [Example 38B, rel-3-chloro-4-[(3,5-difluoropyridin-2-yl)methoxy]-2′-[2-(2-hydroxypropan-2-yl)pyridin-4-yl]-5′,6-dimethyl-[1,4′-bipyridin]-2-one]
p38a/MK2; [2]
  IC50: > 1000 nM
p38a/PRAK
  IC50: > 316000 nM

## Cc1cnc(-c2ccnc(C3(O)CCOCC3)n2)cc1-n1c(C)cc(OCc2ncc(F)cc2F)c(Cl)c1=O (single isomer, unassigned) [Example 39A, rel-3-chloro-4-((3,5-difluoropyridin-2-yl)methoxy)-2′-(2-(4-hydroxytetrahydro-2H-pyran-4-yl)pyrimidin-4-yl)-5′,6-dimethyl-2H-[1,4′-bipyridin]-2-one]
p38a/MK2; [2]
  IC50: 10 nM
p38a/PRAK
  IC50: 12600 nM

## Cc1cnc(-c2ccnc(C3(O)CCOCC3)n2)cc1-n1c(C)cc(OCc2ncc(F)cc2F)c(Cl)c1=O (single isomer, unassigned) [Example 39B, rel-3-chloro-4-((3,5-difluoropyridin-2-yl)methoxy)-2′-(2-(4-hydroxytetrahydro-2H-pyran-4-yl)pyrimidin-4-yl)-5′,6-dimethyl-2H-[1,4′-bipyridin]-2-one]
p38a/MK2; [2]
  IC50: > 1000 nM
p38a/PRAK
  IC50: > 316000 nM

## Cc1cc(OCc2ncc(F)cc2F)c(Cl)c(=O)n1-c1cc(-c2ccnc(C(C)(C)O)n2)ncc1C1CC1 (single isomer, unassigned) [Example 40A, rel-3-chloro-5′-cyclopropyl-4-[(3,5-difluoropyridin-2-yl)methoxy]-2′-[2-(2-hydroxypropan-2-yl)pyrimidin-4-yl]-6-methyl-[1,4′-bipyridin]-2-one]
p38a/MK2; [2]
  IC50: 126 nM
p38a/PRAK
  IC50: 15800 nM

## Cc1cc(OCc2ncc(F)cc2F)c(Cl)c(=O)n1-c1cc(-c2ccnc(C(C)(C)O)n2)ncc1C1CC1 (single isomer, unassigned) [Example 40B, rel-3-chloro-5′-cyclopropyl-4-[(3,5-difluoropyridin-2-yl)methoxy]-2′-[2-(2-hydroxypropan-2-yl)pyrimidin-4-yl]-6-methyl-[1,4′-bipyridin]-2-one]
p38a/MK2; [2]
  IC50: > 1000 nM
p38a/PRAK
  IC50: > 316000 nM
